In one series the test system is Legionella ssp. It is filed as cell-based.
The nature of series [1]: time course of residual chlorine concentration in 42° C. hot water. The settings on record: chlorine level 0.4 ppm at start.
The next series has as its system Staphylococcus aureus. Briefly: germicidal testing at 0.4 ppm chlorine (Comparative Example 2). The settings on record: concentration of 0.4 ppm. The format is cell-based.
The next series deals with Escherichia coli. Described as above. The format is cell-based. The settings on record: concentration of 0.4 ppm.

As to `OCl` [Sodium hypochlorite], the germicidal activity result in the series with Legionella ssp., in the series on Staphylococcus aureus and in the series with Escherichia coli was “no germicidal activity” throughout. The “residual concentration in the water (chlorine)” value in series [1] (after 30 minutes) was 0.3 ppm; in series [1] (after 60 minutes), 0.2 ppm; in series [1] (at 90 minutes) it was 0 ppm.

(Values after US20070065519A1, “Copper ion-producing composition” (priority 2005, published 2007).)
